Source: publication PMC6891756, “Synthesis and Biological Evaluation of Novel Aminochalcones as Potential Anticancer and Antimicrobial Agents” (Molecules, 2019)
Converted amounts (≈) assume the structure as drawn. Where two headings read alike, the source gives them in different places.

Tests used:
HT-29 = assay: SRB antiproliferative assay, HT-29; assay type: cell-based, human; conditions: Homo sapiens, HT-29; SRB, 48 h, 1–100 µg·mL^−1; ND = not detected in the tested concentration range
Description: (§1) Anticancer activity was evaluated using the sulforhodamine B assay (SRB) on four different human colon cancer cell lines: HT-29, LS180, LoVo and LoVo/DX and green monkey kidney fibroblasts COS7 (ATCC, Manassas, VA, USA). Cell lines HT-29 and COS7 were cultured in α-MEM medium (IIET PAS, Wrocław, Poland), LS180 in OptiMEM medium (IIET PAS), LoVo and LoVo/DX in mixture of α-MEM and OptiMEM medium (1:1 (v:v)). Each culture medium was supplemented with 10% fetal bovine serum, 2 mM glutamine, 100 μg·mL^−1 penicillin, 100 μg·mL^−1 streptomycin and 0.25 μg·mL^−1 amphotericin (all supplements purchased from Gibco (Paisley, UK). Cells were incubated at 37 °C, 5% CO2 in HeraCELL 150i incubator (Thermo Fisher Scientific, Waltham, MA, USA).
(§2) For the SRB assay, cells were seeded onto 96-well plates (Sarstedt, Nümbrecht, Germany) at a density of 5·10^3/well and cultured overnight as described above. Then, the growth medium was gently removed and replaced with fresh medium, supplemented with aminochalcone derivatives in the concentration ranging from 1 µg·mL^−1 to 100 µg·mL^−1. All stock solutions were prepared in DMSO at a concentration of 10 mg·mL^−1. Cells were incubated for 48 h and then the SRB assay was performed as described previously. Each experiment was performed in quadruplicate. The final results were reported as the IC50 values calculated for three independent experiments. Cisplatin (Acros Organics, Waltham, MA, USA) and doxorubicin (Fisher BioReagents, Waltham, MA, USA) were used as positive controls of the test.

LS180 = assay: SRB antiproliferative assay, LS180; assay type: cell-based, human; conditions: Homo sapiens, LS180, 48 h, 1–100 µg·mL^−1, ND = not detected in the tested concentration range
Description: as §1, §2

LoVo = assay: SRB antiproliferative assay, LoVo; assay type: cell-based, human; conditions: Homo sapiens, LoVo, 48 h, 1–100 µg·mL^−1, ND = not detected in the tested concentration range
Description: as §1, §2

LoVo/DX = assay: SRB antiproliferative assay, LoVo/DX; assay type: cell-based, human; conditions: Homo sapiens, LoVo/DX, 48 h, 1–100 µg·mL^−1, ND = not detected in the tested concentration range
Description: as §1, §2

[1] = SRB assay, normal fibroblasts COS7; assay type: cell-based, green monkey; conditions: green monkey, COS7 kidney fibroblasts (normal cell line), ND = not detected in the tested concentration range
Description: as §1, §2

[2] = system: Escherichia coli ATCC10536; assay: Microbial growth curve screening, E. coli; assay type: cell-based; conditions: 0.1% (w/v); for ∆OD E. coli: OD at 560 nm, control 1.61
Description: (§3) The antimicrobial screening tests were performed on two strains of bacteria: E. coli ATCC10536 and S. aureus DSM799, strain of yeast C. albicans DSM1386 and three strains of fungi: F. linii KB-F1, A. alternata CBS1526 and A. niger DSM1957. All microorganisms were obtained from the collection of the Faculty of Biotechnology and Food Microbiology, Wrocław University of Environmental and Life Sciences. The bacteria were cultured in nutrient broth (Biocorp, Warsaw, Poland), yeast and fungi in YM medium (3 g yeast extract, 3 g malt extract, 5 g bacteriological peptone and 10 g of glucose dissolved in 1 L of distilled water). The tests were carried out in 100-well microtiter plates. To each well 280 μL of culture medium, 10 μL of microorganism suspension and 10 μL of aminochalcone (1–18) dissolved in dimethyl sulfoxide (3% (w/v)) were added. The final concentration of the tested compound (1–18) was 0.1% (w/v). Each experiment were performed in 3 replications. The optical density of the cell suspension was measured on Bioscreen C (Automated Growth Curve Analysis System Lab System, Vantaa, Finland) at 560 nm automatically, at regular intervals of 30 min for 2–3 days. Cell cultures were maintained at 28 °C on a continuous shaker. To prepare the growth curves for each strain, the mean values of the absorbance in a function of time were used. The resulting antimicrobial activity was expressed as the increase of optical density (ΔOD) and was compared to that of the control cultures in the medium supplemented with dimethyl sulfoxide and also with reference substances: oxytetracycline (against bacteria), cycloheximide (against yeast) and nystatin (against fungi) (Sigma Aldrich).

[3] = system: Staphylococcus aureus DSM799; assay: Microbial growth curve screening, S. aureus; assay type: cell-based; conditions: 0.1% (w/v); for ∆OD S. aureus: OD at 560 nm, control 1.67; for Lag-phase S. aureus: control 2.5 h
Description: as §3

Candida albicans DSM1386 [4] = assay: Microbial growth curve screening, C. albicans; assay type: cell-based; conditions: 0.1% (w/v); for ∆OD C. albicans: OD at 560 nm, control 1.58; for Lag-phase C. albicans: control 3.0 h
Description: as §3

[5] = system: Alternaria alternata CBS1526; assay: Microbial growth curve screening, A. alternata; assay type: cell-based; conditions: 0.1% (w/v); for ∆OD A. alternata: OD at 560 nm, control 1.86; for Lag-phase A. alternata: control 16.5 h
Description: as §3

Fusarium linii KB-F1 [6] = assay: Microbial growth curve screening, F. linii; assay type: cell-based; conditions: 0.1% (w/v); for ∆OD F. linii: OD at 560 nm, control 1.95; for Lag-phase F. linii: control 13.5 h
Description: as §3

[7] = system: Aspergillus niger DSM1957; assay: Microbial growth curve screening, A. niger; assay type: cell-based; conditions: 0.1% (w/v); for ∆OD A. niger: OD at 560 nm, control 2.14; for Lag-phase A. niger: control 11.0 h
Description: as §3

[8] = system: Escherichia coli ATCC10536; assay: MIC evaluation (broth method), E. coli; assay type: cell-based; conditions: 48–72 h, read-out: Minimal inhibitory concentration E. coli
Description: (§4) Sterile 96-well microtiter plates (Sarstedt) with nutrient broth (for bacteria) (Biocorp) or YM medium (for yeast and filamentous fungi) were inoculated with a standardized cell suspension of bacteria and yeast or fungal spores of 10^5 cell·mL^−1, and supplemented with aminochalcones dissolved in DMSO. […] All analysis were conducted in triplicates. The plates were incubated at 30 °C (bacteria and yeast) or 25 °C (filamentous fungi) for 48–72 h. The results were measured with the Spark® Multimode Microplate Reader (Tecan, Männedorf, Switzerland) at a 560 nm wavelength. The minimal inhibitory concentration was defined as the lowest concentration of a tested compound that completely restricted the growth of the microorganism. In order to verify the obtained results, microbial cultures subjected to each concentration of aminochalcone were inoculated onto nutrient agar or YM plates and incubated as described above. The lack of growth on agar plate was a confirmation of the MIC of the tested compound. The resulting MIC values were compared with the reference substances: oxytetracycline (against bacteria), cycloheximide (against yeast) and nystatin (against fungi) (Sigma Aldrich).

[9] = system: Alternaria alternata CBS1526; assay: MIC evaluation (broth method), A. alternata; assay type: cell-based; conditions: Alternaria alternata, CBS1526, 48–72 h, read-out: Minimal inhibitory concentration A. alternata
Description: as §4

[10] = system: Staphylococcus aureus DSM799; assay: MIC evaluation (broth method), S. aureus; assay type: cell-based; conditions: 48–72 h, read-out: Minimal inhibitory concentration S. aureus
Description: as §4

Candida albicans DSM1386 [11] = assay: MIC evaluation (broth method), C. albicans; assay type: cell-based
Description: as §4

[12] = system: Aspergillus niger DSM1957; assay: MIC evaluation (broth method), A. niger; assay type: cell-based; conditions: Aspergillus niger, DSM1957, 48–72 h, read-out: Minimal inhibitory concentration A. niger
Description: as §4

Fusarium linii KB-F1 [13] = assay: MIC evaluation (broth method), F. linii; assay type: cell-based; conditions: Fusarium, KBF1, 48–72 h, read-out: Minimal inhibitory concentration F. linii
Description: as §4

[14] = DSM1386, broth method, 48–72 h, read-out: Minimal inhibitory concentration C. albicans

Compound	IC50 (HT-29) [µg/mL]	IC50 (LS180) [µg/mL]	IC50 (LoVo) [µg/mL]	IC50 (LoVo/DX) [µg/mL]	IC50 at 48 h [1] [µg/mL]	∆OD E. coli [2]	∆OD S. aureus [3]	Lag-phase S. aureus [3] [h]	∆OD C. albicans (Candida albicans DSM1386 [4])	Lag-phase C. albicans (Candida albicans DSM1386 [4]) [h]	∆OD A. alternata [5]	Lag-phase A. alternata [5] [h]	∆OD F. linii (Fusarium linii KB-F1 [6])	Lag-phase F. linii (Fusarium linii KB-F1 [6]) [h]	∆OD A. niger [7]	Lag-phase A. niger [7] [h]	MIC [8] [µg/mL]	melting point [°C]	MIC [9] [µg/mL]	MIC [10] [µg/mL]	also measured
CCc1ccc(/C=C/C(=O)c2ccccc2N)cc1 [Compound 4, 2′-Amino-4-ethylchalcone]	3.98 ± 0.03 (≈ 15.8 µM)	5.1 ± 0.65 (≈ 20.3 µM)	4.77 ± 0.37 (≈ 19 µM)	4.78 ± 0.19 (≈ 19 µM)	9.57 ± 0.52 (≈ 38.1 µM)	0.0	0.84	32.5	0.98	6.0	0.40	26.5	1.04	7.5	0.60	30.0	0.5 (≈ 1.99 µM)	34 to 36	–	–	–
CCc1ccc(/C=C/C(=O)c2ccc(N)cc2)cc1 [Compound 6, 4′-Amino-4-ethylchalcone]	3.61 ± 0.21 (≈ 14.4 µM)	5.2 ± 0.3 (≈ 20.7 µM)	4.26 ± 0.19 (≈ 16.9 µM)	3.68 ± 0.3 (≈ 14.6 µM)	7.16 ± 0.34 (≈ 28.5 µM)	0.16	0.87	28.0	0.44	9.5	–	–	0.40	9.0	0.41	36.5	–	125	1 (≈ 3.98 µM)	–	Lag-phase E. coli ([2]; control 4.0 h): 3.5 h
Nc1ccccc1C(=O)/C=C/c1ccc(C(=O)O)cc1 [Compound 7, 2′-Amino-4-carboxychalcone]	4.26 ± 0.13 (≈ 15.9 µM)	7.86 ± 0.35 (≈ 29.4 µM)	7.68 ± 0.34 (≈ 28.7 µM)	11.1 ± 0.44 (≈ 41.5 µM)	7.78 ± 0.75 (≈ 29.1 µM)	0.0	0.0	–	–	–	–	–	0.37	26.0	–	–	0.125 (≈ 0.468 µM)	188 to 191	0.5 (≈ 1.87 µM)	0.125 (≈ 0.468 µM)	MIC (Candida albicans DSM1386 [11]; [14]): 0.125 µg/mL (≈ 0.468 µM); MIC [12]: 0.125 µg/mL (≈ 0.468 µM)
Nc1ccccc1C(=O)/C=C/c1ccc(OCc2ccccc2)cc1 [Compound 13, 2′-Amino-4-benzyloxychalcone]	–	–	–	–	–	0.0	0	–	–	–	0.92	13.0	0.32	16.0	0.78	21.5	0.25 (≈ 0.759 µM)	–	–	0.25 (≈ 0.759 µM)	MIC (Candida albicans DSM1386 [11]; [14]): 0.5 µg/mL (≈ 1.52 µM)
COc1cc(/C=C/C(=O)c2ccccc2N)ccc1OCc1ccccc1 [Compound 16, 2′-Amino-4-benzyloxy-3-methoxychalcone]	4.85 ± 0.08 (≈ 13.5 µM)	6.64 ± 0.29 (≈ 18.5 µM)	5.77 ± 0.38 (≈ 16.1 µM)	4.59 ± 0.21 (≈ 12.8 µM)	9.02 ± 0.17 (≈ 25.1 µM)	0.0	0	–	0.66	8.5	0.64	8.5	0	–	0.41	40.5	0.5 (≈ 1.39 µM)	–	–	0.5 (≈ 1.39 µM)	MIC (Fusarium linii KB-F1 [13]): 0.5 µg/mL (≈ 1.39 µM)
COc1cc(/C=C/C(=O)c2cccc(N)c2)ccc1OCc1ccccc1 [Compound 17, 3′-Amino-4-benzyloxy-3-methoxychalcone]	2.9 ± 0.27 (≈ 8.07 µM)	3.76 ± 0.38 (≈ 10.5 µM)	1.71 ± 0.13 (≈ 4.76 µM)	1.77 ± 0.09 (≈ 4.92 µM)	3.45 ± 0.22 (≈ 9.6 µM)	0.0	0.36	33.5	0.55	9.0	–	–	0.24	11.0	–	–	0.125 (≈ 0.348 µM)	38	1 (≈ 2.78 µM)	–	MIC [12]: 1 µg/mL (≈ 2.78 µM)
C[C@@H]1C[C@@H]([C@H](O)CC2CC(=O)NC(=O)C2)C(=O)[C@@H](C)C1 [Cycloheximide, reference compound]	–	–	–	–	–	–	–	–	0.0	–	–	–	–	–	–	–	–	–	–	–	MIC (Candida albicans DSM1386 [11]; DSM1386, read-out: Minimal inhibitory concentration C. albicans): 0.5 µg/mL (≈ 1.78 µM)
